In ChEMBL document CHEMBL1201862, “PubChem BioAssay data set” (2004):
Calls of active or inactive are those of the source.

Key:
Protein RecA = target: T1, Protein RecA (Mycobacterium tuberculosis, UniProt P9WHJ3); test: Fluorescence Cell-Free Homogeneous Dose Retest to Identify Inhibitors of RecA-Intein Splicing Activity. [Related pubchem assays (depositor defined):AID2097, AID2223, AID489010, AID492950]; format: functional
T1 sequence (P9WHJ3 whole entry): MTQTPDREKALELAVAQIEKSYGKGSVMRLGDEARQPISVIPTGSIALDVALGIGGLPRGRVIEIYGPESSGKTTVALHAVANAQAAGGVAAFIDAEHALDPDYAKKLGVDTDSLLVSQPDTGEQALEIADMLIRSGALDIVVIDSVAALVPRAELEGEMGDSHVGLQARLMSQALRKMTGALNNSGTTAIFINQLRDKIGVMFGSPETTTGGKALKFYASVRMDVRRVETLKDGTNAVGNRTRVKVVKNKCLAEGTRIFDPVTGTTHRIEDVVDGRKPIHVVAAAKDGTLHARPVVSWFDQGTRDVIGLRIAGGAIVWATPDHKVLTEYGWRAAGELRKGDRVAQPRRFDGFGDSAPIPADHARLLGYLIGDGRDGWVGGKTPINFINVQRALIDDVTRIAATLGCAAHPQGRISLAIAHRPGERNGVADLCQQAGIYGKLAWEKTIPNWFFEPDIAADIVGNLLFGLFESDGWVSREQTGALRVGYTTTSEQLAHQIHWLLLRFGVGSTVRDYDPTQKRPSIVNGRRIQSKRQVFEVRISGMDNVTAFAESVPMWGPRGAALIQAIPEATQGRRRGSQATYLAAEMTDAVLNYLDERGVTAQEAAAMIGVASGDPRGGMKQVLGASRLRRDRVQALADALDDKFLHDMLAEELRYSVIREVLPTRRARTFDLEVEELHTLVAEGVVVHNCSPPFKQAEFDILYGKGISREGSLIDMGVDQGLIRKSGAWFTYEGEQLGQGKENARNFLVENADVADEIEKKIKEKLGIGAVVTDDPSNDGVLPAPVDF

Nonstructural protein 1 = Nonstructural protein 1 (Influenza A virus, UniProt Q194T2); format: functional, Influenza A virus (A/California/07/2009(H1N1))
Sequence of Nonstructural protein 1 (Q194T2 whole entry): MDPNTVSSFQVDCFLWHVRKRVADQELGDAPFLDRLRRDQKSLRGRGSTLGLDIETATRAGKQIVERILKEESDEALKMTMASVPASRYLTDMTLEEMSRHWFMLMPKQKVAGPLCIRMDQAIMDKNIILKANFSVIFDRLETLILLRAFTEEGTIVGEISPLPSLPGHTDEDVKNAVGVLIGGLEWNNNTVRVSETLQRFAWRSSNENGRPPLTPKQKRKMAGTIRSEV

[1] = target: Glucose-6-phosphate 1-dehydrogenase (Homo sapiens, UniProt P11413); test: human G6PD enzyme inhibitors, dose response, selectivity assay for P. falciparum G6PD inhibitor project, biochemical, fluorescence (AID 504792); format: functional
Sequence of Glucose-6-phosphate 1-dehydrogenase (P11413 whole entry): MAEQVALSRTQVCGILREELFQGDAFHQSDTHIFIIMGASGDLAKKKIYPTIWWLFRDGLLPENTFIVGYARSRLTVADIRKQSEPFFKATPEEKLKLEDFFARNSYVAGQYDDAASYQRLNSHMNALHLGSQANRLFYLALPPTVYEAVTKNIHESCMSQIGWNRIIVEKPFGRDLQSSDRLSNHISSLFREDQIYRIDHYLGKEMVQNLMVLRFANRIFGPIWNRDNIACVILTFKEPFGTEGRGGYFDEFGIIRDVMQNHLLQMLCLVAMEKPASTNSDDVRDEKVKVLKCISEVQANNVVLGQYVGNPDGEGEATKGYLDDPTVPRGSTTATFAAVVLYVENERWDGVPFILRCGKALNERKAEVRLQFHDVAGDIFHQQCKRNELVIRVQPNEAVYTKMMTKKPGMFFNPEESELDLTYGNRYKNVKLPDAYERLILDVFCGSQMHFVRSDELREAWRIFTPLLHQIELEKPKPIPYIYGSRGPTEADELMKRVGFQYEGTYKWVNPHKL

[2] = target: Induced myeloid leukemia cell differentiation protein Mcl-1 (Homo sapiens, UniProt Q07820); format: functional
Sequence of Induced myeloid leukemia cell differentiation protein Mcl-1 (Q07820 whole entry): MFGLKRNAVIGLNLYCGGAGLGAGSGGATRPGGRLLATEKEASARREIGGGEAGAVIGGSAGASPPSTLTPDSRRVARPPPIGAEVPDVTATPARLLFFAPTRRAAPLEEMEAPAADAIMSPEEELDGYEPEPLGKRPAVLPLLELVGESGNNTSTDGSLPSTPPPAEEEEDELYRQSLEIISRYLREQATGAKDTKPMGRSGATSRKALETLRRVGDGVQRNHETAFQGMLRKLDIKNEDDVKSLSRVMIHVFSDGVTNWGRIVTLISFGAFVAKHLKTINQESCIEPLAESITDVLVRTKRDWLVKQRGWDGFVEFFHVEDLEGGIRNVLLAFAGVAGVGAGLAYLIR

[3] = target: T2, Polyadenylate-binding protein 1 (Homo sapiens, UniProt P11940); test: PABP1 MLLE–PAM2 interaction inhibitors, dose response, miRNA deadenylation inhibitor project, biochemical, fluorescence polarization, Cy5-PAM2 peptide, secondary (AID 602260); format: functional; settings: read-out: IC50_Mean
T2 sequence (P11940 whole entry): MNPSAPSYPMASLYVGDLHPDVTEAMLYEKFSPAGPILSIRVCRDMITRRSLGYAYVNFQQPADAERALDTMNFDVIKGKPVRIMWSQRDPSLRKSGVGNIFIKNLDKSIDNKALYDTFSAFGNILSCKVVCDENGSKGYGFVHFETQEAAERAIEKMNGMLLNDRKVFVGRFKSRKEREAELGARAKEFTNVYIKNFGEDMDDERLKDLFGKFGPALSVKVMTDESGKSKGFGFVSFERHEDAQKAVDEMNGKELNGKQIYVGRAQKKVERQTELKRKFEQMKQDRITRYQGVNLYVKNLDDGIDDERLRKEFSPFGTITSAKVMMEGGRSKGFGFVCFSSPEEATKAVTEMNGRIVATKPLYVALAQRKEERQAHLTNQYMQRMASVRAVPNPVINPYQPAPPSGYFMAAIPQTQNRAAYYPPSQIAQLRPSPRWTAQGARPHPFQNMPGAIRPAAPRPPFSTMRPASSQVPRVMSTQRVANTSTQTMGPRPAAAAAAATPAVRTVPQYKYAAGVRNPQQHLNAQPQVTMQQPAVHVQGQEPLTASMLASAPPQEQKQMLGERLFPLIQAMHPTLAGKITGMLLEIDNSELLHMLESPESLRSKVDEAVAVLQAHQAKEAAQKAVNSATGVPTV

[4] = target: T3, Replicative DNA helicase DnaB (Mycobacterium tuberculosis, UniProt P9WMR3); test: DnaB intein splicing inhibitors, dose response, biochemical, cell-free fluorescence (AID 449749); format: functional
T3 sequence (P9WMR3 whole entry): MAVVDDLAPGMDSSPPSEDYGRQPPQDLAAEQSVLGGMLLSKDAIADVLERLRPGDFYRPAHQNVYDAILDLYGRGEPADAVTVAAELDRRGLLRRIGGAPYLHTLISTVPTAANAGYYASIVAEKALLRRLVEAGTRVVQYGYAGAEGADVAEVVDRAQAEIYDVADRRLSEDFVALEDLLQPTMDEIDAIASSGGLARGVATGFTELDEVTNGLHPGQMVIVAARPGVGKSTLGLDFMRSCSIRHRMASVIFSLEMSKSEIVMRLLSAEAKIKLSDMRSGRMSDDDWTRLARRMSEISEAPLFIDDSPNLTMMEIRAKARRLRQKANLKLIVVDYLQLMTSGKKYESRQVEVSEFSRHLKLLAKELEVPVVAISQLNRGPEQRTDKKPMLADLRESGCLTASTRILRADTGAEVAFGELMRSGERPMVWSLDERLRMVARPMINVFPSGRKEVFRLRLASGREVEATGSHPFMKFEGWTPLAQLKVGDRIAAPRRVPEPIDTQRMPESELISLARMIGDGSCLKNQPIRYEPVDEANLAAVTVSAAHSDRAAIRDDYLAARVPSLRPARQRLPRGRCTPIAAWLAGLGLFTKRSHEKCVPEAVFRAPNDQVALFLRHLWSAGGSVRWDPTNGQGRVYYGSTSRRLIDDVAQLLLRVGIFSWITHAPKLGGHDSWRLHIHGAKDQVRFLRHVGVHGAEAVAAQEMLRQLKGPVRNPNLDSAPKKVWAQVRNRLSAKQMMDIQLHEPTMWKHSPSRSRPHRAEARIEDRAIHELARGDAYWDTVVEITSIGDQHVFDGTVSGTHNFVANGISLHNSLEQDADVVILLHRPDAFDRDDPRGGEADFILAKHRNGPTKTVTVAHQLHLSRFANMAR

[5] = target: T2, Polyadenylate-binding protein 1; test: PABP1 MLLE–PAM2 binding inhibitor potency, dose response, biochemical, fluorescence polarization, FITC-PAM2 peptide (AID 602259); format: functional; settings: read-out: IC50_Mean
[6] = target: T4, Apoptotic protease-activating factor 1 (Homo sapiens, UniProt O14727); format: functional
T4 sequence (O14727 whole entry): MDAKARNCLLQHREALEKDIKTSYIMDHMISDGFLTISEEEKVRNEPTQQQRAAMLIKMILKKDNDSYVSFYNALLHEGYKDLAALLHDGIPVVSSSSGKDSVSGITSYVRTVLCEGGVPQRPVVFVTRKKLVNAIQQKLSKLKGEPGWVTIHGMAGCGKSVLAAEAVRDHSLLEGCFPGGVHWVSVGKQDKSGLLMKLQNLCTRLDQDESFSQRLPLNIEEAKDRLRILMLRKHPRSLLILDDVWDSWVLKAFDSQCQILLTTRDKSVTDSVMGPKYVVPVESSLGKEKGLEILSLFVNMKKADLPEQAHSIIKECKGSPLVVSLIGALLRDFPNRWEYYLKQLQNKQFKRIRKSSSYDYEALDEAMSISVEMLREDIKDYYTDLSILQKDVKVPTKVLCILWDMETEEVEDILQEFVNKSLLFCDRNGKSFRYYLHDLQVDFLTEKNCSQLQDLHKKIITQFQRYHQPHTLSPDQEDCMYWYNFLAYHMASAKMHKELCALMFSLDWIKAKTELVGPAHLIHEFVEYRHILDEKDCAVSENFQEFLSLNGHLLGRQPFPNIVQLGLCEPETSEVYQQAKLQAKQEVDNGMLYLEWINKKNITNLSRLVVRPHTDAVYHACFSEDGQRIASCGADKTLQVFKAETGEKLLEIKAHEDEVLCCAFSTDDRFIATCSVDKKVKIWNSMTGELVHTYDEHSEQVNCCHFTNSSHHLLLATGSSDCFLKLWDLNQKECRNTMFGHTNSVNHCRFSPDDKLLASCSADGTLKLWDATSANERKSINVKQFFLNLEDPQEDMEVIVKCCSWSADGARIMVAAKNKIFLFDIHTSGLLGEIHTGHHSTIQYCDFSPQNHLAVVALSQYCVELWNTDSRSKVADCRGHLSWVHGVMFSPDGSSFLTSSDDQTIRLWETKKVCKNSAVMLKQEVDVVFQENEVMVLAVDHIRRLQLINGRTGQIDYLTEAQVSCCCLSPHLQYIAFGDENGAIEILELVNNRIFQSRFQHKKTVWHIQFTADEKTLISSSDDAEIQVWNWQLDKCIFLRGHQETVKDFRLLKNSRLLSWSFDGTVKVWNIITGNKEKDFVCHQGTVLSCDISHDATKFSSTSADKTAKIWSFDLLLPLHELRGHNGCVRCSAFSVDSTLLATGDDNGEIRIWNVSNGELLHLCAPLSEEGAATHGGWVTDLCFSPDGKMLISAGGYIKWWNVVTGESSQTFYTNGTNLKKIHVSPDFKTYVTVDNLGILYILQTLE

[7] = target: T5, Nuclear receptor subfamily 0 group B member 1 (Homo sapiens, UniProt P51843); test: Luminescence-based cell-based high throughput dose response assay for inhibitors of the orphan nuclear receptor subfamily 0, group B, member 1 (DAX1; NR0B1). [Related pubchem assays (depositor defined):AID504766, AID504790]; format: functional
T5 sequence (P51843 whole entry): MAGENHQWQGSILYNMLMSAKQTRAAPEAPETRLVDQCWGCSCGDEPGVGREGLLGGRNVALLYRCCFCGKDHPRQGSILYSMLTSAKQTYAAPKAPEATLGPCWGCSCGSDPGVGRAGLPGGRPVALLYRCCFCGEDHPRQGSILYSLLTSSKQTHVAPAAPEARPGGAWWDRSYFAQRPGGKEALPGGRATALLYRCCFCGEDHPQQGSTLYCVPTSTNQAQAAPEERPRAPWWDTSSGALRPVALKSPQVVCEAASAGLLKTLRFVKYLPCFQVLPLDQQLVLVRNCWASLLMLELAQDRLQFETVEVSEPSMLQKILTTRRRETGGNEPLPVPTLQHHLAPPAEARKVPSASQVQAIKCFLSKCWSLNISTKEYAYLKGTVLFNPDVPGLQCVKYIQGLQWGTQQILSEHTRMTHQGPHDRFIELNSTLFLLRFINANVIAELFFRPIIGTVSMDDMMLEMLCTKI

HEK293 = test: cells; format: functional, cell-based; settings: Homo sapiens
[8] = target: T6, Aryl hydrocarbon receptor (Homo sapiens, UniProt P35869); settings: Potency;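 also: confirmatory quantitative high-throughput screen measuring activation of the AhR signaling pathway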
T6 sequence (P35869 whole entry): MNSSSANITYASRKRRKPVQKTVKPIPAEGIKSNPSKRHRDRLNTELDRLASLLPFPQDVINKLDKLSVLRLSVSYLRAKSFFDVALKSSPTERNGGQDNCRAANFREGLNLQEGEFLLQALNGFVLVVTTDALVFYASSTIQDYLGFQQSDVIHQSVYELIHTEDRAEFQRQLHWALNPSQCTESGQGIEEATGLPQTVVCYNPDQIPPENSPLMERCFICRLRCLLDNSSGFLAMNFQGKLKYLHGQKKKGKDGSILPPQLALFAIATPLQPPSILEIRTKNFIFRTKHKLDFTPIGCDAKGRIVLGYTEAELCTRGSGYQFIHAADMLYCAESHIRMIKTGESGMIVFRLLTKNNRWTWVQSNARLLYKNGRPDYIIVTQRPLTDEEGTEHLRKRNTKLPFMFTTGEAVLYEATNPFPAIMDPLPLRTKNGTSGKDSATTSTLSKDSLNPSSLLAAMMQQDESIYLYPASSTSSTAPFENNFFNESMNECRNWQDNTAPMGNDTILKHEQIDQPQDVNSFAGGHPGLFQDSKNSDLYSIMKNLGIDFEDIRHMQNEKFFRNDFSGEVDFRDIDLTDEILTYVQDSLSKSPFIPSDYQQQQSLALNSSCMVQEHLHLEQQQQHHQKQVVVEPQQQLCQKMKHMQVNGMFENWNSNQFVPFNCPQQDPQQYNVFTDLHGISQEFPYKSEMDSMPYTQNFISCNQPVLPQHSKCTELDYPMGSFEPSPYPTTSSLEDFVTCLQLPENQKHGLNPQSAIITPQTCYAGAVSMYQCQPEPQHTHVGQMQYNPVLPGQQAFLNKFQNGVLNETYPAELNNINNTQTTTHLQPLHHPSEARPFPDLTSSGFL

[9] = target: Voltage-gated inwardly rectifying potassium channel KCNH2 (Homo sapiens, UniProt Q12809); settings: Potency;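 also: confirmatory quantitative high-throughput screen measuring inhibition of hERG channel activity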
Sequence of Voltage-gated inwardly rectifying potassium channel KCNH2 (Q12809 whole entry, the tested form may be a part): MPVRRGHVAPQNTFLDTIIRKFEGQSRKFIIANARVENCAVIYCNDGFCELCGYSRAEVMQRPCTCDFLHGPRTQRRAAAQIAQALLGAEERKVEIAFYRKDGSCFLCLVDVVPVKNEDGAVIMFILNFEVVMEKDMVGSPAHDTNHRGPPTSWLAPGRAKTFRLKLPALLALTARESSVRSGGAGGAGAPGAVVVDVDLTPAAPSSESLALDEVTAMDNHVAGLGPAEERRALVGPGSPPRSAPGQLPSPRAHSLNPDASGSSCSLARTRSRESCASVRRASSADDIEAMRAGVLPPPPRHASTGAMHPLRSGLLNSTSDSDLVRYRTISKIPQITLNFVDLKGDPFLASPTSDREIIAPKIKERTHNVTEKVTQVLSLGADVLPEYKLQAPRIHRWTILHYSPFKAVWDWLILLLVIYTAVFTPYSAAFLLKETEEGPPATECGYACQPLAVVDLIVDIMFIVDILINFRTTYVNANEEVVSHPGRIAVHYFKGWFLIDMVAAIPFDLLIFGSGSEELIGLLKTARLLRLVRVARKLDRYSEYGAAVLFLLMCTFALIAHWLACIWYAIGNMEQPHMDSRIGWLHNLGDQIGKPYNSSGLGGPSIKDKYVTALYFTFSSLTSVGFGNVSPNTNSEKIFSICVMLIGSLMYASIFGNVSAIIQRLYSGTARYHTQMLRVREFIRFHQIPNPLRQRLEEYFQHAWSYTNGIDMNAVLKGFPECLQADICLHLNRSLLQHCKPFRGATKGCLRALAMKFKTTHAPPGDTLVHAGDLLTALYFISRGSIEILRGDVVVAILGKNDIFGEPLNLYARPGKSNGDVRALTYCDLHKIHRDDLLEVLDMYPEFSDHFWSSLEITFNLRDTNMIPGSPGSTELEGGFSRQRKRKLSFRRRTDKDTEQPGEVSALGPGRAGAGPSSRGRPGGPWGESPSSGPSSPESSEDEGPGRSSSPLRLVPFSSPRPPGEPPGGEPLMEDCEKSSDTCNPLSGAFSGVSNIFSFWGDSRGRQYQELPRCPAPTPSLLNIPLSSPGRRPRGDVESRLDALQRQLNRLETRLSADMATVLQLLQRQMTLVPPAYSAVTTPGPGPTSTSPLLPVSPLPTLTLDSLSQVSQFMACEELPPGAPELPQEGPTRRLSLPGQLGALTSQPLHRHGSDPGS

CHO = test: cytotoxicity in TLR9-MyD88 CHO cells, dose response, cytotoxicity control for TLR9-MyD88 binding inhibitor project, cell-based, luminescence (AID 588339); format: functional, hamster; settings: Cricetulus griseus;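 also: CHO cells stably coexpressing TLR9 and MyD88 fusions from primary screen; compound exposure lasted 48 hours before viability readout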

**Q.** `Cc1ccc(NC2=C(NC(=O)c3ccccc3)C(=O)c3ccccc3C2=O)cc1Cl` was tested. Which EC50 (Protein RecA) did it give?
**A.** 2.52 µM (active)

**Q.** And the IC50 (Nonstructural protein 1)?
**A.** 17.5 µM (active)

**Q.** And the IC50 [1]?
**A.** > 80 µM (inactive)

**Q.** And the IC50 [2]?
**A.** 3.38 µM (active)

**Q.** What about the IC50 [3] of the same molecule?
**A.** > 66 µM (inactive)

**Q.** And the AC50 [4]?
**A.** 3 µM (active)

**Q.** What about the IC50 [5] of the same molecule?
**A.** > 66 µM (inactive)

**Q.** And the IC50 [6]?
**A.** 17 µM (active)

**Q.** What does the source list for `CCOc1ccc(N(CC(=O)Nc2ccc(C)c(C)c2)S(C)(=O)=O)cc1`?
**A.** IC50 [7]: > 67.5 µM (inactive); IC50 (HEK293): > 67.5 µM (inactive)

**Q.** Which results are given for `Cc1cc(Cl)c2oc(C(=O)N(CCO)Cc3ccccc3)c(C)c2c1`?
**A.** IC50 [7]: > 67.5 µM (inactive); IC50 (HEK293): > 67.5 µM (inactive)

**Q.** With `Nc1ccc(/N=N\c2ccccc2)c(N)c1` as the molecule, how does the AC50 [8] read?
**A.** 14.1 µM (inconclusive)

**Q.** What about the AC50 [9] of the same molecule?
**A.** 50.1 µM (inconclusive)

**Q.** `NNC(=O)c1oc2nc(-c3ccc(Cl)cc3)cc(-c3ccccc3)c2c1N` was tested. Which IC50 (CHO) did it give?
**A.** > 49.7 µM (inactive)

**Q.** How did the AC50 [9] turn out when `CCOP(=S)(OCC)SCSC(C)(C)C` [TERBUFOS] was run?
**A.** 39.8 µM (inconclusive)
